In assay [1] the target is T1, PAK4 Kinase domain (PAK4 KD) (Homo sapiens, UniProt O96013).
T1 construct: Cloning, expression, and purification of recombinant PAK4 Kinase domain (PAK4 KD); His tag (pET28a(+)/pET24a(+), Ni-NTA purification) (N, cleaved yes); GST (pGST4.5, glutathione column) (N, cleaved yes); made in house; host or cells: E. coli BL21(DE3)
The assay can be described thus: PAK4 kinase domain enzymatic assay (PK/LDH-coupled, Ki). The assay is classed as biochemical. The note with it: PAK4 Kinase Domain.

The target of assay [2] is T2, PAK4 kinase activity in whole cells (TR-293-KDG, modified HEK 293) (Homo sapiens, UniProt O96013).
T2 construct: engineered to overexpress both GEF-H1b and the kinase domain (KD) of PAK4; expressed in transfected cells; host or cells: TR-293-KDG (modified HEK 293, Trex system, Invitrogen)
T2 sequence (O96013 321-572 limits assumed): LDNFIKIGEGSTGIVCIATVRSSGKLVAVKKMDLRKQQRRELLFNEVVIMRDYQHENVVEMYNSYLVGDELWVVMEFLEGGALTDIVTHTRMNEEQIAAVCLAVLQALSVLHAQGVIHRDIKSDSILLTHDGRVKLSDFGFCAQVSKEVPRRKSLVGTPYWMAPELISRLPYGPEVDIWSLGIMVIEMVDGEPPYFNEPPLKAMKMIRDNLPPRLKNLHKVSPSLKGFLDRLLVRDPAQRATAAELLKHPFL
The assay can be described thus: PAK4 cellular assay: sandwich ELISA of PAK4-dependent phosphorylation of GEF-H1b in TR-293-KDG cells. In kind it is cell-based. The note with it: 3-hour exposure. (In an ELISA, binding on a coated surface is turned into a signal by an enzyme label.)
Protocol: A sandwich ELISA method was used to measure the PAK4 kinase activity in whole cells. The level of PAK4-dependent phosphorylation of GEF-H1b can be determined by monitoring the binding of a phosphospecific antibody to GEF-H1b. […] The KD of PAK4 is inducible in this cell line by tetracycline (Trex system, Invitrogen). […] To establish a phosphorylation event on GEF-HL, cells are induced with doxycycline to express the PAK4 KD. […] Candidate substance effect is measured as the ability to block this phosphorylation event.
ELISA plate was prepared by pre-coating the plates with a capture antibody (α-HA-tag mouse monoclonal antibody), blocked with BSA, and washed in 0.1% tween 20 in tris-buffered saline (TBST). […] Cells were then lysed with a modified RIPA buffer supplemented with protease inhibitors. […] Between all subsequent steps plates were washed 4 times with TBST. Detection antibody (recognizing the phospho-specific eptitope on GEF-H1b) was added for 1 hour, followed by addition of an enzyme linked goat α-rabbit secondary antibody for 45 minutes. […] EC50 values were calculated by sigmoid curve fitting using a four-parameter analysis.

Our source for the Ki and EC50 values is patent US7884117B2, “Carbonylamino pyrrolopyrazoles, potent kinase inhibitors” (Pfizer Inc., priority 2005, dated 2011).

Usually pKi stands for the Ki on a negative log10 scale, so that one unit is a factor of ten. Higher therefore signals a small Ki. The pEC50 is −log10 of the EC50, conventionally taken in molar units. High values mean a low EC50, low ones a high EC50.

pEC50, pKi: −log10 of the molar value.

T1 sequence (O96013 321-572 limits assumed): as above

As for `COc1ccc(CC(=O)Nc2n[nH]c3c2CN(C(=O)O[C@H](CN(C)C)c2ccccc2)C3(C)C)cc1` [Example 19, (1S)-2-(dimethylamino)-1-phenylethyl 3-{[(4-methoxyphenyl)acetyl]amino}-6,6-dimethyl-4,6-dihydropyrrolo [3,4-c]pyrazole-5(1H)-carboxylate], the pKi in assay [1] was 8.10. Also, in assay [2], the pEC50 was 7.17.
In the same order, the values of `CN(C)C[C@@H](OC(=O)N1Cc2c(NC(=O)[C@@H]3C[C@H]3c3ccccc3)n[nH]c2C1(C)C)c1ccccc1` [Example 20, (1S)-2-(dimethylamino)-1-phenylethyl 6,6-dimethyl-3-({[trans-2-phenylcyclopropyl]carbonyl}amino)-4,6-dihydropyrrolo[3,4-c]pyrazole-5(1H)-carboxylate] are 8.09 and 7.10.
As for `CN(C)CC(OC(=O)N1Cc2c(NC(=O)c3ccc(F)cc3)n[nH]c2C1(C)C)c1ccccc1` (centres unmarked) [Example 22], the negative-log Ki (pKi) in assay [1] is 7.76. In assay [2], this compound showed a pEC50 of 7.83.
`CN(C)CC(OC(=O)N1Cc2c(NC(=O)c3ccc(F)cc3F)n[nH]c2C1(C)C)c1ccccc1` (centres unmarked) [Example 23, 2-(dimethylamino)-1-phenylethyl 3-[(2,4-difluorobenzoyl)amino]-6,6-dimethyl-4,6-dihydropyrrolo[3,4-c]pyrazole-5(1H)-carboxylate] gave a pKi in assay [1] of 6.91. Besides, in assay [2], the pEC50 was 8.41.
In the same order, the values of `CN(C)C[C@@H](OC(=O)N1Cc2c(NC(=O)c3ccccc3)n[nH]c2C1(C)C)c1ccccn1` [Example 24, (1R)-2-(dimethylamino)-1-pyridin-2-ylethyl 3-(benzoylamino)-6,6-dimethyl-4,6-dihydropyrrolo[3,4-c]pyrazole-5(1H)-carboxylate] are 7.20 and 6.85.
With `CN(C)C[C@@H](OC(=O)N1Cc2c(NC(=O)c3ccc(F)cc3)n[nH]c2C1(C)C)c1ccccn1` [Example 25, (1R)-2-(dimethylamino)-1-pyridin-2-ylethyl 3-[(4-fluorobenzoyl)amino]-6,6-dimethyl-4,6-dihydropyrrolo[3,4-c]pyrazole-5(1H)-carboxylate], the pKi in assay [1] was 7.10. This compound also gave a pEC50 in assay [2] of 6.82.
The matching figures for `CN(C)C[C@@H](OC(=O)N1Cc2c(NC(=O)c3ccccc3F)n[nH]c2C1(C)C)c1ccccn1` [Example 26, (1R)-2-(dimethylamino)-1-pyridin-2-ylethyl 3-[(2-fluorobenzoyl)amino]-6,6-dimethyl-4,6-dihydropyrrolo[3,4-c]pyrazole-5(1H)-carboxylate]: 6.56 and 6.61.
The matching figures for `CN(C)C[C@@H](OC(=O)N1Cc2c(NC(=O)c3ccc(C(F)(F)F)cc3)n[nH]c2C1(C)C)c1ccccn1` [Example 27, (1R)-2-(dimethylamino)-1-pyridin-2-ylethyl 6,6-dimethyl-3-{[4-(trifluoromethyl)benzoyl]amino}-4,6-dihydropyrrolo[3,4-c]pyrazole-5(1H)-carboxylate]: 7.09 and 7.10.
The compound `CN(C)C[C@@H](OC(=O)N1Cc2c(NC(=O)Cc3ccc(F)cc3)n[nH]c2C1(C)C)c1ccccn1` [Example 28, (1R)-2-(dimethylamino)-1-pyridin-2-ylethyl 3-{[(4-fluorophenyl)acetyl]amino}-6,6-dimethyl-4,6-dihydropyrrolo[3,4-c]pyrazole-5(1H)-carboxylate] gave a pKi in assay [1] of 7.14. The compound further showed a pEC50 in assay [2] of 6.55.
In the same order, the values of `CN(C)C[C@@H](OC(=O)N1Cc2c(NC(=O)[C@@H]3C[C@H]3c3ccccc3)n[nH]c2C1(C)C)c1ccccn1` [Example 29, (1R)-2-(dimethylamino)-1-pyridin-2-ylethyl 6,6-dimethyl-3-({[trans-2-phenylcyclopropyl]carbonyl}-amino)-4,6-dihydropyrrolo[3,4-c]pyrazole-5(1H)-carboxylate] are 7.57 and 6.38.
In the same order, the values of `CN(C)C[C@H](Cc1ccccc1)OC(=O)N1Cc2c(NC(=O)c3ccccc3)n[nH]c2C1(C)C` [Example 30, (1S)-1-benzyl-2-(dimethylamino)ethyl 3-(benzoylamino)-6,6-dimethyl-4,6-dihydropyrrolo[3,4-c]pyrazole-5(1H)-carboxylate] are 6.97 and 5.68.
In the same order, the values of `CN(C)C[C@H](Cc1ccccc1)OC(=O)N1Cc2c(NC(=O)c3ccccc3F)n[nH]c2C1(C)C` [Example 31, (1S)-1-benzyl-2-(dimethylamino)ethyl 3-[(2-fluorobenzoyl)amino]-6,6-dimethyl-4,6-dihydropyrrolo[3,4-c]pyrazole-5(1H)-carboxylate] are 6.07 and 6.64.
`CN(C)C[C@@H](OC(=O)N1Cc2c(NC(=O)c3ccccc3)n[nH]c2C1(C)C)C1CCCCC1` [Example 32, (1S)-1-cyclohexyl-2-(dimethylamino)ethyl 3-(benzoylamino)-6,6-dimethyl-4,6-dihydropyrrolo[3,4-c]pyrazole-5(1H)-carboxylate]: the pKi in assay [1] was 7.24. In assay [2], this compound had a pEC50 of 6.79.
In assay [1], `CN(C)C[C@@H](OC(=O)N1Cc2c(NC(=O)c3ccc(F)cc3F)n[nH]c2C1(C)C)C1CCCCC1` [Example 34, (1S)-1-cyclohexyl-2-(dimethylamino)ethyl 3-[(2,4-difluorobenzoyl)amino]-6,6-dimethyl-4,6-dihydropyrrolo[3,4-c]pyrazole-5(1H)-carboxylate] had a pKi of 6.29. The compound further gave a pEC50 in assay [2] of 7.22.
In the same order, the values of `CC(C)C[C@@H](CN(C)C)OC(=O)N1Cc2c(NC(=O)c3ccccc3)n[nH]c2C1(C)C` [Example 35, (1S)-1-[(dimethylamino)methyl]-3-methylbutyl 3-(benzoylamino)-6,6-dimethyl-4,6-dihydropyrrolo[3,4-c]pyrazole-5(1H)-carboxylate] are 7.03 and 6.67.
In the same order, the values of `CC(C)C[C@@H](CN(C)C)OC(=O)N1Cc2c(NC(=O)c3ccc(F)cc3)n[nH]c2C1(C)C` [Example 36, (1S)-1-[(dimethylamino)methyl]-3-methylbutyl 3-[(4-fluorobenzoyl)amino]-6,6-dimethyl-4,6-dihydropyrrolo[3,4-c]pyrazole-5(H)-carboxylate] are 6.99 and 6.50.
The matching figures for `CN(C)CC(OC(=O)N1Cc2c(NC(=O)c3ccc(F)cc3)n[nH]c2C1(C)C)c1ccccc1F` (centres unmarked) [Example 38, 2-(dimethylamino)-1-(2-fluorophenyl)ethyl 3-[(4-fluorobenzoyl)amino]-6,6-dimethyl-4,6-dihydropyrrolo[3,4-c]pyrazole-5(1H)-carboxylate]: 7.36 and 6.95.
With `CN(C)CC(OC(=O)N1Cc2c(NC(=O)c3ccc(F)cc3)n[nH]c2C1(C)C)c1ccc(F)cc1` (centres unmarked) [Example 39, 2-(dimethylamino)-1-(4-fluorophenyl)ethyl 3-[(4-fluorobenzoyl)amino]-6,6-dimethyl-4,6-dihydropyrrolo[3,4-c]pyrazole-5(1H)-carboxylate], the pKi in assay [1] was 7.32. The compound also had a negative logarithm of the EC50 (pEC50) in assay [2] of 7.82.
The matching figures for `CC(C)N(C)C[C@@H](OC(=O)N1Cc2c(NC(=O)c3ccc(F)cc3)n[nH]c2C1(C)C)c1ccccc1` [Example 40, (1S)-2-[isopropyl(methyl)amino]-1-phenylethyl 3-[(4-fluorobenzoyl)amino]-6,6-dimethyl-4,6-dihydropyrrolo[3,4-c]pyrazole-5(H)-carboxylate]: 7.19 and 6.82.
